Target: T1, GIRK1-S65Y with GIRK2 (UniProt P48542+P48549, S65Y)
T1 construct: expressed in transfected cells; host or cells: HEK293 cells
T1 sequence (P48549 1-501 S65Y): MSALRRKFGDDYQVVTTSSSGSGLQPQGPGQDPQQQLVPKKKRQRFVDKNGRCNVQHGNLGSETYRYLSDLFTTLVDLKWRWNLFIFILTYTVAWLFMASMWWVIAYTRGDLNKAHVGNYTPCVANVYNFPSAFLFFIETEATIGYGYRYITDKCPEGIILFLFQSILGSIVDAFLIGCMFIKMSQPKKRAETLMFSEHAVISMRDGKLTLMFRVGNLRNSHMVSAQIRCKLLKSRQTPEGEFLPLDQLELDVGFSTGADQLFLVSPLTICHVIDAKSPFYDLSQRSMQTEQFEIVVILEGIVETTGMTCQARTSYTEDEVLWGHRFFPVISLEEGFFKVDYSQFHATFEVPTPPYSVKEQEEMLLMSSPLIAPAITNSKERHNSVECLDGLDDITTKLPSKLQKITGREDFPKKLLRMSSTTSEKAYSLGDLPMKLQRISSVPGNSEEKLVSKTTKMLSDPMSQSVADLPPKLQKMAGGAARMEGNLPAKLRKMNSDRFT
T1 sequence (P48542 1-425): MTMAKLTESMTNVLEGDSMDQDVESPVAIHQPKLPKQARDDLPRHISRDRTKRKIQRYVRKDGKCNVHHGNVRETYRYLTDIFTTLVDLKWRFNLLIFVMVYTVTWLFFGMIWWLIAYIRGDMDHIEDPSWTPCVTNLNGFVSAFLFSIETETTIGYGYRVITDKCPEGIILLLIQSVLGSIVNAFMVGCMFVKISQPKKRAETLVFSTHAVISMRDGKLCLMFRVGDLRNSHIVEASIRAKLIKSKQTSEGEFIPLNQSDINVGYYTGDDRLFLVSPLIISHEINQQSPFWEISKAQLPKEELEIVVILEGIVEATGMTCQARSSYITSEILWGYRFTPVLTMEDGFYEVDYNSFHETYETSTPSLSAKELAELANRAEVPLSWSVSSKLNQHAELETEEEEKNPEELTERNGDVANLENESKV
Assay: 5-ptaseOCRL current inhibition, GIRK1/2 channels containing GIRK1-S65Y subunits
Format: cell-based, human GIRK1, mouse GIRK2
Conditions: 10 μM GAT1508
From the text: To identify changes in specific channel residue interactions with PIP2 upon ligand binding, the inventors carried out Principal Component Analysis (PCA) in the presence and absence of ML297 and GAT1508. The PCA analysis implicated changes in the slide (or interfacial) helix interactions with PIP2 upon ligand binding. Polar interactions could be formed between GIRK2^FD(Y76) and GIRK4^FD(Y71) with the P(4,5) of PIP2 when ML297 was bound to the same subunit (FIG. 39 top, FIG. 40). In contrast, when GAT1508 was bound this interaction was retained by GIRK2^FD but not GIRK4^FD (FIG. 39 bottom, FIG. 40). The corresponding GIRK1(S65) residue (FIG. 41, highlighted with vertical rectangle) could be serving the same role in stabilizing the phosphoinositol headgroup for interactions with non-ligand binding subunits. As polar residues, both Ser and Tyr could form H-bond interactions with PIP2. […]
Patch-clamp recording: Whole-cell currents were recorded with an Axopatch 200B amplifier (Molecular Devices) controlled via a USB-interface (National Instruments) using WinWCP software (University of Strathclyde). […] The barium-sensitive component of the current, observed when cells were perfused with the high-K^+ buffer, was analyzed and was determined by perfusing 5 mM BaCl2 in the high-K^+ buffer at the end of each experiment. […]

## Cc1cc(NC(=O)Nc2ccc(Br)s2)n(-c2ccccc2)n1 [GAT1508, 1-(5-bromothiophen-2-yl)-3-(3-methyl-1-phenyl-1H-pyrazol-5-yl)urea]
  protection of current from 5-ptaseOCRL (in words): no additional effect

From patent US12351574B2, “Selective ligands for modulation of GIRK channels” (Northeastern University, priority 2018, dated 2025)
